What was measured:
Assay type in all cases: physicochemical
[1] = Acid-catalyzed degradation, HPLC purity
Protocol: (§1) Degradation products for ketorolac tromethamine were generated under acidic and basic conditions for reference when evaluating HPLC chromatograms for purity. This ensures differentiation between degradants, impurities, and peaks which are both impurities and degradants. For the acid-catalyzed degradation, 4.92 mg of ketorolac tromethamine was added to a scintillation vial, followed by 10 mL of H2O, and the pH of the resulting colorless solution was adjusted to pH 1.60 with H3PO4. Aliquots of this solution were placed in capped amber HPLC vials in an 85° C. oven for the indicated amount of time, then analyzed by HPLC using the purity method outlined in Table 3. For the base catalyzed degradation, 4.92 mg of ketorolac tromethamine was added to a scintillation vial, followed by 10 mL of H2O, and the resulting colorless solution was adjusted to pH 12.09 with NaOH. Aliquots of this solution were placed in capped amber HPLC vials in an 85° C. oven for the indicated amount of time, then analyzed by HPLC using the purity method outlined in Table 3.

[2] = Base-catalyzed degradation, HPLC purity
Protocol: as §1

[3] = Light Stability Study (ambient light), HPLC purity
Protocol: The clear scintillation vial was capped and placed on the windowsill, exposing the solution to both ambient light and temperature conditions. Aliquots (500 μL) were removed at various time points and diluted with an equal volume of H2O in an amber HPLC vial. The diluted solution was then analyzed by HPLC for the purity of ketorolac tromethamine.

[4] = Stability Study B in Baxter IntraVia bags, HPLC purity; settings: heat for extended periods of time
Protocol: Once all materials were added to the volumetric flask, it was filled to the line with H2O. The flask was magnetically stirred if any undissolved material was present. The formulations were then purged with N2 for 5 minutes before the bag filling process began. The Baxter IntraVia bags were filled by mass (80 g±1 g) using a peristaltic pump to feed the solution into each bag. A 2-way valve were placed in the solution filling line for sterile filtration and to regulate flow, respectively. For each formulation, 24 bags were filled.
All bags were used in the stability study without exposure to autoclave (or simulated autoclave) conditions. All bags were pulled within 1 day time points of 0, 4, 7, 14, 28 and 42 days and allowed to equilibrate to room temperature before sampling. Sampling of the bags for HPLC analysis occurred using a 5 cc disposable syringe with 21 gauge needle through the drug injection port. Approximately 1.5 mL of each formulation was transferred to an amber HPLC vial and analyzed within 12 hours of sampling.
This study included 3 formulations at 3 different temperatures (40° C., 60° C., and 80° C.) with time points over 6 weeks. Stability Study A provided information to structure Stability Study B with respect to the ideal parameters. […] Table 8 details the measured purity by HPLC of formulations 7, 8, and 10.

- HPLC Purity ([1]; pH 1.60, 85° C., 2.5 hours): 98.96%
- HPLC Purity ([1]; pH 1.60, 85° C., 4 hours): 98.92%
- HPLC Purity ([1]; pH 1.60, 85° C., 24 hours): 98.87%
- HPLC Purity ([1]; pH 1.60, 85° C., 40 hours): 98.08%
- HPLC Purity ([1]; pH 1.60 with H3PO4, 85° C., 1.5 hours): 99.02%
- HPLC Purity ([2]; pH 12.09, 85° C., 2.5 hours): 99.66%
- HPLC Purity ([2]; pH 12.09, 85° C., 4 hours): 99.62%
- HPLC Purity ([2]; pH 12.09, 85° C., 24 hours): 99.28%
- HPLC Purity ([2]; pH 12.09, 85° C., 40 hours): 98.97%
- HPLC Purity ([2]; pH 12.09 with NaOH, 85° C., 1.5 hours): 99.67%
- Purity ([3]; ambient light and temperature, clear vial, in H2O, 0 days): 99.62%
- Purity ([3]; ambient light, 1 day): 99.62%
- Purity ([3]; ambient light, 3 days): 99.60%
- Purity ([3]; ambient light, 5 days): 99.61%
- Purity ([3]; ambient light, 12 days): 99.60%
- Purity ([3]; ambient light, 41 days): 97.03%
- Purity ([3]; ambient light, 48 days): 96.24%
- Purity ([3]; ambient light, 62 days): 93.27%
- Purity ([3]; ambient light, 76 days): 90.50%
- stability upon exposure to heat [4]: stable
Compound: O=C(c1ccccc1)c1ccc2n1CCC2C(=O)O (centres unmarked) [Ketorolac tromethamine]

Reference: patent US10278959B2, “Ready to use ketorolac formulations” (RTU Pharmaceuticals, LLC, priority 2010, dated 2019)
